Reference: PubChem BioAssay AID1845209 (Molecular Pharmacology Branch, DTP, NCI, 2023)
pIC50: −log10 of the molar value.

Tested on: NCI-H211 tumor spheroids, viability percent test/control
Test: Anticancer human tumor NCI-H211 cell line growth inhibition;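 further: spheroids exposed to agents for seven days before readout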
Settings: spheroids with HUVEC and MSC; for pIC50: curve of first compound; for viability, T/C: stronger effect = lower value
Outline: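 Complex spheroids of malignant cells with endothelial cells and mesenchymal stem cells; agents alone or combined, from near clinical Cmax (or 10 microM if unknown) down in half-log steps, 0.25% DMSO final.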

[1] = second compound 0.003 µM, first compound 0.0316 µM
[2] = second compound 0.003 µM, first compound 0.1 µM
[3] = second compound 0.003 µM, first compound 0.316 µM
[4] = second compound 0.003 µM, first compound 1 µM
[5] = second compound 0.003 µM, first compound 3.16 µM
[6] = second compound 0.003 µM, first compound 10 µM
[7] = second compound 0.00949 µM, first compound 0.0316 µM
[8] = second compound 0.00949 µM, first compound 0.1 µM
[9] = second compound 0.00949 µM, first compound 0.316 µM
[10] = second compound 0.00949 µM, first compound 1 µM
[11] = second compound 0.00949 µM, first compound 3.16 µM
[12] = second compound 0.00949 µM, first compound 10 µM
[13] = second compound 0.03 µM, first compound 0.0316 µM
[14] = second compound 0.03 µM, first compound 0.1 µM
[15] = second compound 0.03 µM, first compound 0.316 µM
[16] = second compound 0.03 µM, first compound 1 µM
[17] = second compound 0.03 µM, first compound 3.16 µM
[18] = second compound 0.03 µM, first compound 10 µM
[19] = second compound 0.0949 µM, first compound 0.0316 µM
[20] = second compound 0.0949 µM, first compound 0.1 µM
[21] = second compound 0.0949 µM, first compound 0.316 µM
[22] = second compound 0.0949 µM, first compound 1 µM
[23] = second compound 0.0949 µM, first compound 3.16 µM
[24] = second compound 0.0949 µM, first compound 10 µM
[25] = second compound 0.3 µM, first compound 0.0316 µM
[26] = second compound 0.3 µM, first compound 0.1 µM
[27] = second compound 0.3 µM, first compound 0.316 µM
[28] = second compound 0.3 µM, first compound 1 µM
[29] = second compound 0.3 µM, first compound 3.16 µM
[30] = second compound 0.3 µM, first compound 10 µM

| Structure (SMILES) | pIC50 (second compound 0.003 µM) | pIC50 (second compound 0.00949 µM) | pIC50 (second compound 0.03 µM) | pIC50 (second compound 0.0949 µM) | pIC50 (second compound 0.3 µM) | viability, T/C [1] [%] | viability, T/C [2] [%] | viability, T/C [3] [%] | viability, T/C [4] [%] | viability, T/C [5] [%] | viability, T/C [6] [%] | viability, T/C [7] [%] | viability, T/C [8] [%] | viability, T/C [9] [%] | viability, T/C [10] [%] | viability, T/C [11] [%] | viability, T/C [12] [%] | viability, T/C [13] [%] | viability, T/C [14] [%] | viability, T/C [15] [%] | also measured |
| --- | --- | --- | --- | --- | --- | --- | --- | --- | --- | --- | --- | --- | --- | --- | --- | --- | --- | --- | --- | --- | --- |
| CC(C)n1c(=O)n(C)c2cnc3cc(F)c(-c4ccc(OCCCN5CCCCC5)nc4)cc3c21 + CC[C@@]1(O)C(=O)OCc2c1cc1n(c2=O)Cc2cc3c(CN(C)C)c(O)ccc3nc2-1 | > 7.50 | > 7.50 | > 7.50 | > 7.50 | > 7.50 | 19.9 | 22 | 20 | 18.8 | 10.9 | 2.91 | 0.98 | 0.97 | 1.23 | 1.31 | 1.09 | 0.52 | 1.27 | 0.81 | 0.82 | viability, T/C [16]: 0.85%; viability, T/C [17]: 0.81%; viability, T/C [18]: 0.5%; viability, T/C [19]: 0.98%; viability, T/C [20]: 1.01%; viability, T/C [21]: 0.97%; viability, T/C [22]: 0.94%; viability, T/C [23]: 1%; viability, T/C [24]: 0.57%; viability, T/C [25]: 1.06%; viability, T/C [26]: 0.95%; viability, T/C [27]: 0.85%; viability, T/C [28]: 1.2%; viability, T/C [29]: 1.02%; viability, T/C [30]: 0.73% |
| CC1COCCN1c1cc(-c2ccnn2C)c2ccnc(-c3ccn[nH]3)c2n1 (stereo not given) + CC[C@@]1(O)C(=O)OCc2c1cc1n(c2=O)Cc2cc3c(CN(C)C)c(O)ccc3nc2-1 | > 7.50 | > 7.50 | > 7.50 | > 7.50 | > 7.50 | 1.02 | 1.19 | 1.59 | 0.56 | 0.45 | 0.65 | 1.86 | 0.7 | 1.15 | 0.42 | 0.4 | 0.58 | 1.1 | 1.24 | 0.67 | viability, T/C [16]: 1.07%; viability, T/C [17]: 0.38%; viability, T/C [18]: 0.47%; viability, T/C [19]: 0.72%; viability, T/C [20]: 0.9%; viability, T/C [21]: 0.83%; viability, T/C [22]: 0.52%; viability, T/C [23]: 0.66%; viability, T/C [24]: 1.17%; viability, T/C [25]: 1%; viability, T/C [26]: 0.97%; viability, T/C [27]: 0.71%; viability, T/C [28]: 0.83%; viability, T/C [29]: 1.25%; viability, T/C [30]: 0.81% |
| COc1cc(C)[nH]c(=O)c1CN1CCc2c(Cl)cc(C(OC)C3COC3)c(Cl)c2C1=O (stereo not given) + CC[C@@]1(O)C(=O)OCc2c1cc1n(c2=O)Cc2cc3c(CN(C)C)c(O)ccc3nc2-1 | < 5.00 | 7.35 | > 7.50 | > 7.50 | > 7.50 | 97.8 | 94.2 | 94.5 | 80.2 | 84.6 | 79.1 | 61.2 | 23.1 | 19.7 | 23.1 | 20.5 | 17.4 | 2.26 | 1.33 | 1.49 | viability, T/C [16]: 1.03%; viability, T/C [17]: 0.89%; viability, T/C [18]: 1.35%; viability, T/C [19]: 1.49%; viability, T/C [20]: 1.42%; viability, T/C [21]: 1.65%; viability, T/C [22]: 1.41%; viability, T/C [23]: 1.22%; viability, T/C [24]: 0.83%; viability, T/C [25]: 1.31%; viability, T/C [26]: 1.63%; viability, T/C [27]: 1.29%; viability, T/C [28]: 1.18%; viability, T/C [29]: 1.75%; viability, T/C [30]: 0.92% |
| COc1ccc([C@@H](O)c2cc(-c3ncnc4cc(N5CCOCC5)ccc34)c(F)cc2Cl)nn1 + CC[C@@]1(O)C(=O)OCc2c1cc1n(c2=O)Cc2cc3c(CN(C)C)c(O)ccc3nc2-1 | 5.44 | > 7.50 | > 7.50 | > 7.50 | > 7.50 | 112 | 109 | 109 | 80.8 | 57.8 | 5.72 | 18.5 | 19 | 34.5 | 10.9 | 4.32 | 1.55 | 0.99 | 1.23 | 0.9 | viability, T/C [16]: 0.66%; viability, T/C [17]: 0.4%; viability, T/C [18]: 0.33%; viability, T/C [19]: 0.86%; viability, T/C [20]: 0.83%; viability, T/C [21]: 0.77%; viability, T/C [22]: 1.43%; viability, T/C [23]: 0.37%; viability, T/C [24]: 0.32%; viability, T/C [25]: 0.92%; viability, T/C [26]: 1.06%; viability, T/C [27]: 0.96%; viability, T/C [28]: 0.94%; viability, T/C [29]: 1.01%; viability, T/C [30]: 0.26% |
| [2H]c1nc(C)nc([2H])c1-c1cc(NC[C@@H](C)c2cccc3c(C(=O)NC)ccnc23)ncn1 + CC[C@@]1(O)C(=O)OCc2c1cc1n(c2=O)Cc2cc3c(CN(C)C)c(O)ccc3nc2-1 | 5.07 | > 7.50 | > 7.50 | > 7.50 | > 7.50 | 65.3 | 63.1 | 49.7 | 65.6 | 51 | 48.1 | 4.11 | 1.98 | 1.95 | 1.63 | 2.52 | 1.58 | 0.8 | 1.15 | 1.33 | viability, T/C [16]: 0.93%; viability, T/C [17]: 1.82%; viability, T/C [18]: 1.19%; viability, T/C [19]: 1.46%; viability, T/C [20]: 0.76%; viability, T/C [21]: 1.4%; viability, T/C [22]: 0.83%; viability, T/C [23]: 1.25%; viability, T/C [24]: 1.69%; viability, T/C [25]: 1.19%; viability, T/C [26]: 1.37%; viability, T/C [27]: 0.88%; viability, T/C [28]: 1.14%; viability, T/C [29]: 0.92%; viability, T/C [30]: 0.98% |
